Measurements: patent publication US7923578B2, “Method of manufacturing 3-(4-hydroxyphenyl)propanoic acid amide, its application in the manufacture of anti-aging compositions and anti-aging composition” (Instytut Chemii Bioorganicznej Pan, priority 2005, dated 2011)
Where “and” joins values, the source holds several entries; their conditions need not be identical. Identical values can stand only once.

Experiments:
[1] = system: Fibroblast cells (SF25 p29); assay: Lysosomal activity (Neutral Red Uptake assay); format: cell-based, human
Description: (§1) Test solution preparation: Stock solutions of 8 mM for the 3-p-hydroxyphenyl-propanoic acid amide were prepared by dissolving about 30 mg/ml in Hank's buffer to a final volume of 30 ml. In brief, the stock solutions were filter sterilized, stored at 4° C., and were used for experiments at their appropriate dilutions in cell culture media as required. Cell culture: All experiments were performed on mid- and late passage cultures of normal human adult skin fibroblast line, designated Senetek SNF25 (40-75% life span completed). In order to check the effects of test compounds on senescent cells, late passage cells with about 75% lifespan completed were used. SNF25 cell line was established from a mammary skin biopsy obtained from a young, non-smoking and healthy […] at the time of breast reduction operation. Normal culture conditions of medium (DMEM) containing antibiotics, 10% fetal calf serum, and incubation at 37° C., 5% CO2 with 95% humidity were used. The effects of the test chemicals were determined in the following conditions: Growth characteristics: Short-term growth experiments were performed using 24-well tissue culture plates (growth area 1.9 cm^2) and flat bottom 96 well plates (growth area 0.328 cm^2). Freshly prepared cell suspensions from mass cultures of SNF25 cells maintained in the lab were used. About 10,000 cells/well were seeded into 6 sets of 24-well plates. The cells were either allowed to attach and stabilize for 24 hours in normal culture medium or were directly added to the culture medium of a final concentration (range 40 μM to 500 μM). Culture medium was changed with the addition of test chemicals weekly. The numbers of cells were counted after different days of treatment in 2 wells from each concentration of the test chemical, by following the normal method of cell trypsinization and counting using a Coulter Counter. The third well in each category was fixed with cold methanol and stained with Giemsa stain for permanent record and for photography. The experiment was carried on until the cultures became fully confluent and no further growth was possible. Cell survival, toxicity and JC-1 staining: Cell survival after exposure to various doses was measured with the 3-(4,5 dimethylthiazol-2-yl)-2,5-diphenyltetrazolium bromide (MTT) assay. About 5,000 cells were seeded per well in a 96-well plate for 24 hours before the experiment. Cells were then treated with various doses of the compound to be tested. The wells were washed in Hank's and new medium was added. […] The absorbance was measured at 595 nm. […] The cultures were visually examined after 72 hours, and the number of viable cells and/or the total cell protein content determined, after 72 hours exposure, by the Neutral Red Uptake method. […]

fibroblasts = assay: Induction of cell proliferation (DNA synthesis, BrdU incorporation); format: cell-based, human; conditions: pre-treated fibroblasts
late passage cells = assay: Cell survival of late passage (senescent) cells, Coulter counting; format: cell-based, human
Description: Effects on late passage cells—Cytoskeletal organization: Late passage cells with more than 75% lifespan were treated with different doses of phloretamide in order to see if this treatment could revert any of the age related changes. […] Effect of 3-p-hydroxyphenyl-propionic acid amide on the morphology of late passage cells after 7 and 14 days—Morphology of senescent cells: Late passage human skin fibroblasts (about 75% life span completed) were treated with various doses of phloretamide to see whether this treatment could reverse age-related alterations in their morphology. […] Heterogeneous behavior was not observed in the cells. […] Cell survival: Equal numbers of senescent cells were seeded in separate flasks and were treated with different concentrations of phloretamide. Cell numbers were determined by using a Coulter counter after trypsinization and resuspension of cells after 7 and 14 days of treatment.

[2] = system: middle aged dermal fibroblasts; assay: Mitochondrial activity / cell survival (MTT assay); format: cell-based, human
Description: Test solution preparation: Stock solutions of 8 mM for the 3-p-hydroxyphenyl-propanoic acid amide were prepared by dissolving about 30 mg/ml in Hank's buffer to a final volume of 30 ml. In brief, the stock solutions were filter sterilized, stored at 4° C., and were used for experiments at their appropriate dilutions in cell culture media as required. Cell culture: All experiments were performed on mid- and late passage cultures of normal human adult skin fibroblast line, designated Senetek SNF25 (40-75% life span completed). In order to check the effects of test compounds on senescent cells, late passage cells with about 75% lifespan completed were used. […] The effects of the test chemicals were determined in the following conditions: Growth characteristics: Short-term growth experiments were performed using 24-well tissue culture plates (growth area 1.9 cm^2) and flat bottom 96 well plates (growth area 0.328 cm^2). […] The numbers of cells were counted after different days of treatment in 2 wells from each concentration of the test chemical, by following the normal method of cell trypsinization and counting using a Coulter Counter. […] Cell survival, toxicity and JC-1 staining: Cell survival after exposure to various doses was measured with the 3-(4,5 dimethylthiazol-2-yl)-2,5-diphenyltetrazolium bromide (MTT) assay. […] The absorbance was measured at 595 nm. […]

[3] = system: Late passage human skin fibroblasts; assay: Cytoskeletal organization and morphology of late passage cells; format: cell-based
Description: as §1, with “The cells were either allowed to attach and stabilize for 24 hours in normal culture medium or were directly added to the culture medium of a final concentration (range 40 μM to 500 μM). Culture medium was changed with the addition of test chemicals weekly.” left out, “The third well in each category was fixed with cold methanol and stained with Giemsa stain for permanent record and for photography. The experiment was carried on until the cultures became fully confluent and no further growth was possible.” left out, “assay.” for “assay. About 5,000 cells were seeded per well in a 96-well plate for 24 hours before the experiment. Cells were then treated with various doses of the compound to be tested. The wells were washed in Hank's and new medium was added.”

[4] = system: human dermal fibroblasts (SNF25); assay: Cell attachment of human skin fibroblasts; format: cell-based
Description: as §1, with “The cells were either allowed to attach and stabilize for 24 hours in normal culture medium or were directly added to the culture medium of a final concentration (range 40 μM to 500 μM). Culture medium was changed with the addition of test chemicals weekly.” left out, “The third well in each category was fixed with cold methanol and stained with Giemsa stain for permanent record and for photography. The experiment was carried on until the cultures became fully confluent and no further growth was possible.” left out, “assay.” for “assay. About 5,000 cells were seeded per well in a 96-well plate for 24 hours before the experiment. Cells were then treated with various doses of the compound to be tested. The wells were washed in Hank's and new medium was added.”

SNF25 p 44 cells = assay: JC-1 staining of mitochondrial potential by fluorescence microscopy; format: cell-based, human; conditions: pre-treatment for 3 days, all doses
Description: FIG. 3 presents the localization of JC-1 in SNF25 p44 cells using phloretamide by fluorescence microscopy.
Localization of JC-1 in SNF25 p 44 cells using phloretamide by fluorescence microscopy is shown on FIG. 3.
Staining for JC-1 was performed after phloretamide pre-treatment on dermal fibroblasts for a period of 3 days to see the mitochondrial potential.

[5] = system: human skin fibroblasts (SNF25 p 23); assay: Short-term growth (one step growth curve, Coulter counting, Giemsa morphology); format: cell-based
Description: Test solution preparation: Stock solutions of 8 mM for the 3-p-hydroxyphenyl-propanoic acid amide were prepared by dissolving about 30 mg/ml in Hank's buffer to a final volume of 30 ml. In brief, the stock solutions were filter sterilized, stored at 4° C., and were used for experiments at their appropriate dilutions in cell culture media as required. Cell culture: All experiments were performed on mid- and late passage cultures of normal human adult skin fibroblast line, designated Senetek SNF25 (40-75% life span completed). In order to check the effects of test compounds on senescent cells, late passage cells with about 75% lifespan completed were used. SNF25 cell line was established from a mammary skin biopsy obtained from a young, non-smoking and healthy […] at the time of breast reduction operation. Normal culture conditions of medium (DMEM) containing antibiotics, 10% fetal calf serum, and incubation at 37° C., 5% CO2 with 95% humidity were used. The effects of the test chemicals were determined in the following conditions: Growth characteristics: Short-term growth experiments were performed using 24-well tissue culture plates (growth area 1.9 cm^2) and flat bottom 96 well plates (growth area 0.328 cm^2). Freshly prepared cell suspensions from mass cultures of SNF25 cells maintained in the lab were used. About 10,000 cells/well were seeded into 6 sets of 24-well plates. The cells were either allowed to attach and stabilize for 24 hours in normal culture medium or were directly added to the culture medium of a final concentration (range 40 μM to 500 μM). Culture medium was changed with the addition of test chemicals weekly. The numbers of cells were counted after different days of treatment in 2 wells from each concentration of the test chemical, by following the normal method of cell trypsinization and counting using a Coulter Counter. The third well in each category was fixed with cold methanol and stained with Giemsa stain for permanent record and for photography. The experiment was carried on until the cultures became fully confluent and no further growth was possible. Cell survival, toxicity and JC-1 staining: Cell survival after exposure to various doses was measured with the 3-(4,5 dimethylthiazol-2-yl)-2,5-diphenyltetrazolium bromide (MTT) assay. About 5,000 cells were seeded per well in a 96-well plate for 24 hours before the experiment. Cells were then treated with various doses of the compound to be tested. The wells were washed in Hank's and new medium was added. After three days, MTT (Sigma, M2128) was added at 0.5 mg/ml in medium. After 4 h, MTT was removed and isopropanol and HCl were added to dissolve the MTT crystals for 12-16 h. The absorbance was measured at 595 nm. Lysosomal activity: Neutral Red is preferentially taken up into the lysosomes of the cell. Fibroblast cells were maintained in culture and exposed to test compounds over a range of concentrations. The cultures were visually examined after 72 hours, and the number of viable cells and/or the total cell protein content determined, after 72 hours exposure, by the Neutral Red Uptake method. Individual wells of a 96-well tissue culture microtiter plate were inoculated with 0.2 ml of the appropriate media containing cells (usually 3×10^3 cells). After 1 day of incubation, the media were removed and replaced with unamended (control) medium or with medium amended with varied concentrations of the compound to be tested. […]

appearance (morphology) of cells ([5]; at higher doses, after 11 days of treatment (FIG. 2 E)): larger, irregularly arranged and sparse
Structure (SMILES): NC(=O)CCc1ccc(O)cc1 [phloretamide, 3-(4-hydroxyphenyl)propanoic acid amide]
staining pattern of the cells (lysosomal staining) ([1]; 40 μM and 80 μM, FIG. 4): showed autophagy
decrease in the lysosomal autophagy ([1]; dose range of 40 μM and 80 μM): 15-40%
lysosomal rate compared to the untreated ([1]; up to 200 μM, 72 hours exposure): decreased in a dose dependent manner
lysosomal activity ([1]; upwards of 40 μM): decrease in lysosomal activity was observed
DNA synthesis in comparison to the controls (fibroblasts): no significant differences
numbers of surviving late passage cells (late passage cells; after one and two weeks): almost similar without much difference
cell growth of late passage cells (late passage cells; at higher doses, after 7 and 14 of treatment): dose dependent reduction
effects on the activity of mitochondria ([2]; until a dose of 500 μM, 3 days, MTT): no negative effects
induction of cell growth ([2]; within the tested range of doses (0, 01 μM-500 μM)): no induction of cell growth
improvement in the late passage cells ([3]; after 14 days of treatment): couldn't find an improvement
appearance (morphology) of late passage cells ([3]; after seven and fourteen days of treatment, about 75% life span completed): subtle differences
actin staining pattern, treated versus untreated cells ([3]; middle-aged cells after 3 days): no obvious differences
percentage of cells attached to the surface of the culture flask ([4]; after six hours of treatment, 40 11 M to 2 mM): not affected to any significant extent
improved / enhanced cell attachment ([4]; at 40 μM and 80 μM): 20-30% and 10-20%
immediate toxicity to human dermal fibroblasts ([4]; six hours of treatment): not immediately toxic
JC-1 staining (mitochondrial potential) (SNF25 p 44 cells): polarized mitochondria
JC-1 staining (mitochondrial potential) (SNF25 p 44 cells; listed as 3-p-hydroxyphenyl-propionic acid amide): Punctate orange-red fluorescent staining was observed
inhibition at 500 µM ([5]; Homo sapiens, Skin fibroblast, 264 h, higher concentrations (500 μM), 11 days, read-out: inhibition of cellular growth): > 50%
increase in cell numbers ([5]; after 11 days of treatment, 40 μM to 200 μM): 10-20%
doses at which cytotoxicity of cells was seen ([5]; after 11 days of treatment, morphology): greater than 200 μM
stimulation of cell growth ([5]; at 40 μM and 80 μM, one step growth curve, up to 11 days): stimulation of cell growth
